Values joined by “and” are separate entries in the source; they are usually repeats but may differ in a detail not shown here. Equal entries are not always repeated.
Assays:
CaMKIIα(h) = CaMKIIα(h) (Homo sapiens, UniProt Q9UQM7); experiment: Kinase selectivity panel (residual activity at 1 μM); type: biochemical; settings: inhibitor at 1 μM; read-out: residual kinase activity in % of maximal activity
CDK5/p35(h) = CDK5/p35(h) (Homo sapiens, UniProt Q00535); experiment: as above; type: biochemical; settings: inhibitor at 1 μM; read-out: residual kinase activity in % of maximal activity
CDK5/p35(h), sequence (Q00535 whole entry): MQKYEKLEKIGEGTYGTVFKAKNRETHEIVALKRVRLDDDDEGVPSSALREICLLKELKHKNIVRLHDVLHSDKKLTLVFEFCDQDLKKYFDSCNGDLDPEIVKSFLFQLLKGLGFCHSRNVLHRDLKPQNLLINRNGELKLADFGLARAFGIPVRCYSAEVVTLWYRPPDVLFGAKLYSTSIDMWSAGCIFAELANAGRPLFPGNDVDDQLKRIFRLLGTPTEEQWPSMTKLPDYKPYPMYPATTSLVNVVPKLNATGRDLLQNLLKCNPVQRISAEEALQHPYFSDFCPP
CDK5/p35(h), sequence (Q15078 whole entry partner): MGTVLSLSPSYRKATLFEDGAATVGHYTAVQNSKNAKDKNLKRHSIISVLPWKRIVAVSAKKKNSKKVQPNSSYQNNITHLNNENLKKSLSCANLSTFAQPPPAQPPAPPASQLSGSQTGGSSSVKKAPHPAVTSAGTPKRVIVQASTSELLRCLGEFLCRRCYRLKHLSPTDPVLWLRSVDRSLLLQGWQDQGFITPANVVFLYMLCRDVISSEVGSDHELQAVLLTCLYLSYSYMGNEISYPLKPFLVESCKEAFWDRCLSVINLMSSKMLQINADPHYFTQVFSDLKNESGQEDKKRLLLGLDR

JAK2(h) = JAK2(h) (Homo sapiens, UniProt O60674); experiment: as above; type: biochemical; settings: inhibitor at 1 μM
JAK2(h), sequence (O60674 whole entry): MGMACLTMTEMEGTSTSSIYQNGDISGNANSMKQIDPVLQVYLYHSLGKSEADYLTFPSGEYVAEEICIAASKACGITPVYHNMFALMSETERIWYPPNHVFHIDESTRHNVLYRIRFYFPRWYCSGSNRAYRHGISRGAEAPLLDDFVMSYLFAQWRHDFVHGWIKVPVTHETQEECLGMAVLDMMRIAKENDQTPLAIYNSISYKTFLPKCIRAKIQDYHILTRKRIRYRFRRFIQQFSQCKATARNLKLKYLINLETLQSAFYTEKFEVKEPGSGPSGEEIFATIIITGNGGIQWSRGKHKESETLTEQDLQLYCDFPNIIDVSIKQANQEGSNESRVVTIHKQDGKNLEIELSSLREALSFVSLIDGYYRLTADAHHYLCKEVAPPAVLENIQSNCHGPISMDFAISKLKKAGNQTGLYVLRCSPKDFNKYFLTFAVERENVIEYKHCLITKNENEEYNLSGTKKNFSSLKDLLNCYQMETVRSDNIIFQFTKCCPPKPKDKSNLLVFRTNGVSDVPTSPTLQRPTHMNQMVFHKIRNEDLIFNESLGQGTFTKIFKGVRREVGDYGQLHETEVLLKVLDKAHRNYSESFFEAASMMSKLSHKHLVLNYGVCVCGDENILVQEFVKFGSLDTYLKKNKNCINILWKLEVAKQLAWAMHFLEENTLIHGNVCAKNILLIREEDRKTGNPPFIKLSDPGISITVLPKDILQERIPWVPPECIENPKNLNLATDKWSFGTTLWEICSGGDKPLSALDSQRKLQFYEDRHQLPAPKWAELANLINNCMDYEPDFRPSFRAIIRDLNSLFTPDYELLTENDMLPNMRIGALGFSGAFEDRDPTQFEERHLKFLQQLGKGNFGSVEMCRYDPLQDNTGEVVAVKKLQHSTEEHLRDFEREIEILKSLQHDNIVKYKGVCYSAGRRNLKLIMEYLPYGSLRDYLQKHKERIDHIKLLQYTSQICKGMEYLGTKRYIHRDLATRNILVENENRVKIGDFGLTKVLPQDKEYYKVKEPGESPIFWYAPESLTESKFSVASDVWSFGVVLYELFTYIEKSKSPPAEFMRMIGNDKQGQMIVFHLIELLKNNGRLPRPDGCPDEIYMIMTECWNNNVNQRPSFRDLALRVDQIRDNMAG

KDR(h) = KDR(h) (Homo sapiens, UniProt P35968); experiment: as above; type: biochemical; settings: inhibitor at 1 μM; read-out: residual kinase activity in % of maximal activity
KDR(h), sequence (P35968 20-1356): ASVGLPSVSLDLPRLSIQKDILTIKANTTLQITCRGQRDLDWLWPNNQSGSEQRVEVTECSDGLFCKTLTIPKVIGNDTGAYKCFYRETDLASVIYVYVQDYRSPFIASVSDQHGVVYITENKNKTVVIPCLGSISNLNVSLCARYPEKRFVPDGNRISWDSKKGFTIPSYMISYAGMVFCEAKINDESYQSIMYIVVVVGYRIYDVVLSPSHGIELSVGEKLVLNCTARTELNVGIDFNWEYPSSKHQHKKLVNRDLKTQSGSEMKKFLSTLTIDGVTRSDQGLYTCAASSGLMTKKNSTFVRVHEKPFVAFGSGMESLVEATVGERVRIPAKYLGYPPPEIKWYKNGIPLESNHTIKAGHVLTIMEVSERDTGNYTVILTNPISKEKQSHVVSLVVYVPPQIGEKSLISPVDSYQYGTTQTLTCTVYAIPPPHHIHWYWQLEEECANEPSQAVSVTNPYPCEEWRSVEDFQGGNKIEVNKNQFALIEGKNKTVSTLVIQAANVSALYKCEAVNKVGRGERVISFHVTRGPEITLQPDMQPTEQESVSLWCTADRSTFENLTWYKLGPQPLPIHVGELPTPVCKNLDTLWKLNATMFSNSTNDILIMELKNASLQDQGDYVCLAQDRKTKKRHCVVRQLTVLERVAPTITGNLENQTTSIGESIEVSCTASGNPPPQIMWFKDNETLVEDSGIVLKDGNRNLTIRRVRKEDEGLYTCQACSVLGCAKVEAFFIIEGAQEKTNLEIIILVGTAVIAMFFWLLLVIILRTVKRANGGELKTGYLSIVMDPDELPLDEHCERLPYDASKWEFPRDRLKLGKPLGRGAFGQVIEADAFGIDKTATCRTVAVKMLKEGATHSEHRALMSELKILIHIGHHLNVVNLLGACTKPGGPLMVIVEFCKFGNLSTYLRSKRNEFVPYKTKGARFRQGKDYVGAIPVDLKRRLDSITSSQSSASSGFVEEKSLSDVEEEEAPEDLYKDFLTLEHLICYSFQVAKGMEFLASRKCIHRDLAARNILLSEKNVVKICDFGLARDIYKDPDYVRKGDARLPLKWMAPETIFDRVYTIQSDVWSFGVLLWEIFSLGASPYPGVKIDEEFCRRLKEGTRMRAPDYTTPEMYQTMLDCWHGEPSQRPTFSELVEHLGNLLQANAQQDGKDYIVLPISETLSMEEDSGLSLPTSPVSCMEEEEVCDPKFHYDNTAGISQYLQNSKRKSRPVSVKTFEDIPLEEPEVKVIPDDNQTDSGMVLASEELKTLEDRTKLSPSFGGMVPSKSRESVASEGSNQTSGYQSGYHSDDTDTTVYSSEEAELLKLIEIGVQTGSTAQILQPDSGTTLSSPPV

[1] = molecular target: purified CaMKIIα binding to GST–GluN2B-c WT (Homo sapiens, UniProt Q9UQM7); experiment: CaMKII binding to immobilized GST–GluN2B-c in vitro; settings: for bound CaMKIIα (immunoblot, relative): Ca2+/CaM
Procedure: CaMKII–GluN2B binding assays were done as described[9],[13],[25]. Briefly, GST–GluN2B-c tail (GST–2BC) was immobilized on anti-GST antibody-coated microtiter plates (Thermo Scientific), blocked for 30 min with 5% BSA and then overlaid with […] CaMKII (subunit concentration) in PIPES-buffered saline (pH 7.2) containing 2 mM Ca^2+, 1 μM CaM, 1 mM Mg^2+, 0.1% BSA and 0.1% Tween-20 for 20 min at room temperature. […] After extensive washes in buffer containing 1 mM EGTA, GST–2BC and bound CaMKII were eluted for 10 min in SDS loading buffer at 95 °C. Bound CaMKII was measured via immunoblot.

[2] = system: CA3–CA1 Schaffer collateral pathway LTP; experiment: LTP at CA3–CA1 synapse, field recordings in acute hippocampal slices of WT mice; type: cell-based, mouse; settings: for LTP quantification (fEPSP slope, last 10 min post-HFS, normalized to baseline): 15 min before HFS to 5 min after
[3] = system: CA1 LTP in CaMKIIα KO slices (mock); experiment: LTP field recordings in slices of CaMKIIα KO mice injected with AAV-mScarlet (mock); type: cell-based, mouse; settings: for fEPSP slope (normalized to baseline): individual slices, sheet 5b
Procedure: Stereotactic injections were performed on P24 CaMKIIα KO mice. Animals were anesthetized with an intraperitoneal injection of 2,2,2-Tribromoethanol (250 mg kg^−1) and then head fixed to a stereotactic frame (David Kopf Instruments). AAVs (0.2–0.5 µl) were injected into intermediate CA1 at a rate of […] using a syringe pump (World Precision Instruments). Coordinates (in millimetres) were anterior–posterior: −3.17; mediolateral: ±3.45 (relative to Bregma); and dorsoventral: −2.5 (relative to pia). To confirm specificity of the injection site following LTP recordings, slices were fixed in 4% paraformaldehyde; then, they were coverslipped and imaged on an Olympus slide scanning microscope.
WT and mutant mouse hippocampal slices were prepared using P56–P70 mice. Isoflurane-anesthetized mice were rapidly decapitated, and the brain was dissected in an ice-cold high-sucrose solution containing 220 mM sucrose, 12 mM MgSO4, 10 mM glucose, 0.2 mM CaCl2, 0.5 mM KCl, 0.65 mM NaH2PO4, 13 mM NaHCO3 and 1.8 mM ascorbate. Transverse hippocampal slices (400 μm) were made using a tissue chopper (McIlwain) and transferred into 32 °C ACSF containing 124 mM NaCl, 3.5 mM KCl, 1.3 mM NaH2PO4, 26 mM NaHCO3, 10 mM glucose, 2 mM CaCl2, 1 mM MgSO4 and 1.8 mM ascorbate. All slices were recovered in 95% O2/5% CO2 for at least 1.5 h before experimentation.
For electrophysiological slice recording experiments, a glass micropipette (typical resistance of 0.4–0.8 megaohm when filled with ACSF) was used to record fEPSPs from the CA1 dendritic layer in response to stimulation of the Schaffer collaterals using a tungsten bipolar electrode. Slices were continually perfused with 30.5 °C ± 0.5 °C ACSF at a rate of 2.5 ± 0.5 ml min^−1 during recordings. Stimuli were delivered every 20 s, and three responses (1 min) were averaged for analysis. Data were analysed using WinLTP software with slope calculated as the initial rise from 10 to 60% of the response peak. Input–output curves were generated by increasing the stimulus intensity at a constant interval until a maximum response or population spike was noted to determine stimulation that elicits 50% of maximum slope. […] A stable baseline was acquired for a minimum of 20 min at 50% maximum slope before high-frequency stimulation (HFS; 2 × 100 Hz, 10 s interval) was applied. Responses were recorded for 40 or 60 min after HFS. Change in slope was calculated as a ratio of the average slope of the 20 min baseline (before HFS). Bar graphs of the percentage of fEPSP slope were calculated by averaging the last 10 min time points post-HFS and normalized to baseline.

CaMKIIα(h), sequence (Q9UQM7 whole entry): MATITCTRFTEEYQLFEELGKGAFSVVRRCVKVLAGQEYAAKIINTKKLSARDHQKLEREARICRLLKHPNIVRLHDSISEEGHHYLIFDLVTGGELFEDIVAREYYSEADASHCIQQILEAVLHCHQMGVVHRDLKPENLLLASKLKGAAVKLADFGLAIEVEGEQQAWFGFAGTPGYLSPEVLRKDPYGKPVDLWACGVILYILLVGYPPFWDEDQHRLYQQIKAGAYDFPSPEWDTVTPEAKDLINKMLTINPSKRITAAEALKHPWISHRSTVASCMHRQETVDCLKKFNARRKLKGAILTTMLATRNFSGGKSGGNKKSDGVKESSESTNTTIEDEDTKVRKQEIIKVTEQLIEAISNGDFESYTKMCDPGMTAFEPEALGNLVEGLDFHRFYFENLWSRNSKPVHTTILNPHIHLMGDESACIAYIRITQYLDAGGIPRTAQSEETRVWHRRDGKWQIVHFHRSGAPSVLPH

NCCNc1cccc(-c2ccnc3[nH]c4ccccc4c23)c1 [AS283]
remaining activity at 1 µM (CaMKIIα(h)): 3%
remaining activity at 1 µM (CDK5/p35(h)): 33%
residual kinase activity in % of maximal activity (JAK2(h)): 121%
remaining activity at 1 µM (KDR(h)): 15%
effect on CaMKII binding to GluN2B in vitro ([1]; 10 μM AS283 in the presence of ADP): did not inhibit
Ca2+/CaM-induced CaMKII binding when ATP was substituted with AS283 ([1]; AS283 versus ATP): significantly enhanced
bound CaMKIIα (immunoblot, relative) ([1]; 10 μM AS283, no nucleotide, GST–GluN2B-c WT): 7.5135 and 8.574 and 8.878 and 7.419
bound CaMKIIα (immunoblot, relative) ([1]; 1 mM ADP with 10 μM AS283): 1.196 and 1.2737 and 1.086 and 1.094
LTP quantification (fEPSP slope, last 10 min post-HFS, normalized to baseline) ([2]; AS283 10uM): 152.979% and 135.393% and 153.277%
fEPSP slope (normalized to baseline) ([2]; AS283 10uM, Time (min) -4): 104.452% and 102.587% and 97.9392%
fEPSP slope (normalized to baseline) ([2]; AS283 10uM, Time (min) -5): 97.455% and 97.2289% and 102.244%
fEPSP slope (normalized to baseline) ([2]; AS283 10uM, Time (min) -6): 99.4541% and 99.1179% and 105.524%
fEPSP slope (normalized to baseline) ([2]; AS283 10uM, Time (min) -7): 101.753% and 102.819% and 102.999%
fEPSP slope (normalized to baseline) ([2]; AS283 10uM, Time (min) -8): 95.5559% and 104.449% and 104.231%
fEPSP slope (normalized to baseline) ([2]; AS283 10uM, Time (min) -9): 92.9571% and 97.0204% and 97.7789%
fEPSP slope (normalized to baseline) ([2]; AS283 10uM, Time (min) -10): 99.8539% and 98.6506% and 100.547%
fEPSP slope (normalized to baseline) ([2]; AS283 10uM, Time (min) -11): 103.952% and 101.834% and 101.778%
fEPSP slope (normalized to baseline) ([2]; AS283 10uM, Time (min) -12): 101.553% and 101.652% and 98.229%
fEPSP slope (normalized to baseline) ([2]; AS283 10uM, Time (min) -13): 102.353% and 99.9177% and 99.6311%
LTP quantification (fEPSP slope, last 10 min post-HFS, normalized to baseline) ([2]; AS283 30uM): 160.389% and 108.532% and 181.434% and 162.892% and 172.846% and 114.329% and 178.329%
fEPSP slope (normalized to baseline) ([2]; AS283 30uM, Time (min) -4): 104.315% and 98.2615% and 101.701% and 97.3586% and 99.2226% and 91.7266% and 101.169%
fEPSP slope (normalized to baseline) ([2]; AS283 30uM, Time (min) -5): 101.784% and 110.1% and 99.6307% and 92.306% and 111.307% and 95.4361% and 105.648%
fEPSP slope (normalized to baseline) ([2]; AS283 30uM, Time (min) -6): 100.097% and 110.1% and 101.96% and 97.1642% and 103.039% and 95.0989% and 110.591%
fEPSP slope (normalized to baseline) ([2]; AS283 30uM, Time (min) -7): 104.877% and 108.522% and 113.432% and 111.35% and 97.9505% and 103.53% and 108.737%
fEPSP slope (normalized to baseline) ([2]; AS283 30uM, Time (min) -8): 104.034% and 98.6561% and 118.004% and 96.7756% and 91.5901% and 101.506% and 110.436%
fEPSP slope (normalized to baseline) ([2]; AS283 30uM, Time (min) -9): 106.283% and 106.154% and 107.653% and 91.3344% and 103.039% and 101.844% and 106.575%
fEPSP slope (normalized to baseline) ([2]; AS283 30uM, Time (min) -10): 103.19% and 102.997% and 101.442% and 97.5529% and 105.583% and 95.4361% and 107.965%
fEPSP slope (normalized to baseline) ([2]; AS283 30uM, Time (min) -11): 100.66% and 97.0777% and 100.58% and 104.937% and 103.675% and 93.0755% and 112.753%
fEPSP slope (normalized to baseline) ([2]; AS283 30uM, Time (min) -12): 100.379% and 102.602% and 99.6307% and 99.8848% and 96.6784% and 98.4712% and 119.858%
fEPSP slope (normalized to baseline) ([2]; AS283 30uM, Time (min) -13): 101.784% and 99.0508% and 93.2474% and 96.5813% and 96.6784% and 98.8084% and 114.606%
effect on LTP induction in WT mice ([2]; AS283 10 or 30 µM): failed to block

CC(C)(C)n1nc(Cc2cccc3ccccc23)c2c(N)ncnc21 [NM-PP1]
synaptic response 60 min following LTP induction (fEPSP slope normalized to baseline) ([3]; AAV-mScarlet (mock), 10 μM NM-PP1): 102.757% and 115.997% and 130.031% and 114.245% and 91.515% and 129.007%
effect on residual LTP in control slices ([3]; NM-PP1): no effect
fEPSP slope (normalized to baseline) ([3]; Time (min) 0): 101.067 and 113.338 and 103.234 and 95.8969 and 93.1952 and 132.987
fEPSP slope (normalized to baseline) ([3]; Time (min) 2.33333): 249.911 and 143.318 and 169.121 and 175.176 and 145.841 and 156.755
fEPSP slope (normalized to baseline) ([3]; Time (min) 4.33333): 204.384 and 151.727 and 165.598 and 165.31 and 135.76 and 108.68
fEPSP slope (normalized to baseline) ([3]; Time (min) 6.33333): 189.169 and 150.265 and 135.884 and 160.117 and 120.975 and 129.276
fEPSP slope (normalized to baseline) ([3]; Time (min) 8.33333): 181.94 and 147.249 and 128.602 and 144.365 and 120.078 and 132.395
fEPSP slope (normalized to baseline) ([3]; Time (min) 10.3333): 172.351 and 139.799 and 136.941 and 133.459 and 110.893 and 130.889
fEPSP slope (normalized to baseline) ([3]; Time (min) 12.3333): 161.674 and 137.88 and 134.122 and 129.997 and 100.812 and 137.611
fEPSP slope (normalized to baseline) ([3]; Time (min) 14.3333): 174.774 and 134.406 and 129.19 and 125.67 and 98.5718 and 121.048
fEPSP slope (normalized to baseline) ([3]; Time (min) 16.3333): 159.559 and 133.63 and 131.891 and 126.189 and 89.1627 and 135.622
fEPSP slope (normalized to baseline) ([3]; Time (min) 18.3333): 153.964 and 134.681 and 128.015 and 124.631 and 95.4355 and 108.465
fEPSP slope (normalized to baseline) ([3]; Time (min) 20.3333): 149.095 and 132.944 and 120.851 and 126.189 and 102.828 and 98.3552
fEPSP slope (normalized to baseline) ([3]; Time (min) 22.3333): 149.671 and 128.922 and 119.442 and 125.843 and 91.627 and 123.092
fEPSP slope (normalized to baseline) ([3]; Time (min) 24.3333): 144.438 and 125.952 and 116.623 and 124.631 and 90.9549 and 132.503
fEPSP slope (normalized to baseline) ([3]; Time (min) 26.3333): 142.473 and 123.484 and 117.21 and 125.843
fEPSP slope (normalized to baseline) ([3]; Time (min) -2): 96.4978 and 115.989 and 102.999 and 98.6665 and 100.14 and 126.48
fEPSP slope (normalized to baseline) ([3]; Time (min) -4): 101.912 and 117.543 and 106.993 and 100.051 and 103.5 and 95.9353
fEPSP slope (normalized to baseline) ([3]; Time (min) -6): 102.969 and 117.634 and 102.06 and 101.09 and 99.2439 and 110.347

— paper PMC10482691, “LTP induction by structural rather than enzymatic functions of CaMKII” (Nature, 2023)
